Measurements reported in patent publication US10214502B2, “Method of inhibiting apolipoprotein-E expression while increasing expression of at least one of LDL-receptor protein or AbcA1 protein comprising administering a small compound” (California State University, Fresno, priority 2016, dated 2019).

These compounds were tested on apoE3 (assay: ELISA of apoE3 levels in conditioned media of compound-treated mouse cortical astrocyte cells). Settings: 10 μM compound, 24 hours, normalized to cell protein, relative to DMSO treated cells.
Type: cell-based
Experimental: ApoE inhibition can be readily determined by any one of several assays and techniques known to those of ordinary skill in the art, including the enzyme-linked immunosorbant assay (ELISA). In the experimental results shown in Table 2 and FIG. 5, the ELISA assay was carried out on cortical astrocyte cells from mice. Astrocyte cells produce apoE, LDLR and AbcA1 proteins.
The experiments involved treating mouse cortical astrocyte cells with the claimed compounds at 10 μM concentration for an incubation time of 24 hrs. DMSO solvent was used as a negative control, because the compounds were dissolved in DMSO when applied to the cells.
The ELISA technique involves immobilizing an apoE-specific capture antibody to a 96-well plate, addition of sample (conditioned medium from mouse cortical astrocyte cells treated with the compound for 24 hours), and detection of the bound apoE using a second apoE-specific biotinylated antibody and streptavidin-HRP.
The Mabtech ELISA kit detects the presence of the three apoE isoforms: apoE2, apoE3, and apoE4.
To obtain the data shown in Table 2 and FIG. 5, the mouse cortical astrocyte cells were maintained in DMEM medium (Invitrogen) supplemented with 10 mM HEPES, 1 mM sodium pyruvate, 4.5 g/L glucose, 1% penicillin/streptomycin, and 10% fetal bovine growth serum (Invitrogen) at 37° C., with 5% CO2.
The cells (6×10^4 cells/24-well plate) were grown for 1 day in RPMI, followed by a 24 hour equilibration in serum-free Opti-MEM (Life Technologies). Treatments were carried out in triplicate with […] of fresh Opti-MEM containing 10 μM of compound or vehicle (0.1% DMSO) for 24 hours. […] ApoE concentration in the sample was calculated based on a standard curve derived using known amounts of purified apoE (from Biodesign).
The protein levels in the cells in the 24-well plates were measured using BCA Protein Assay Kit (from Pierce) and used to normalize the data. […] Sample apoE3 concentrations were represented relative to the DMSO treated cells.
The bars in FIG. 5 reflect the respective mean level apoE3 in the media for each compound with an indication of one […].

| Compound | ApoE3 Levels in Cell Media, Average of Three Tests | ApoE3 Levels in Cell Media, Test 1 | ApoE3 Levels in Cell Media, Test 2 | ApoE3 Levels in Cell Media, Test 3 |
| --- | --- | --- | --- | --- |
| O=C(c1ccc2ccccc2c1)N1CCOCC1 [Compound 90] | 98.59 % of the DMSO control | 90.22 % of the DMSO control | 91.69 % of the DMSO control | 113.8441 % of the DMSO control |
| O=C(c1ccc2ccccc2c1)N1CCCC1 [Compound 91] | 104.6561 % of the DMSO control | 126.8225 % of the DMSO control | 87.2 % of the DMSO control | 99.94 % of the DMSO control |
| O=C(c1ccc2ccccc2c1)N1CCCCC1 [Compound 92] | 115.1327 % of the DMSO control | 128.0284 % of the DMSO control | 127.4327 % of the DMSO control | 89.94 % of the DMSO control |
| CCC(C)NS(=O)(=O)c1ccc2ccccc2c1 (stereo not drawn) [Compound 93] | 102.6197 % of the DMSO control | 103.3801 % of the DMSO control | 109.2249 % of the DMSO control | 95.25 % of the DMSO control |
| CC(C)CNS(=O)(=O)c1ccc2ccccc2c1 [Compound 94] | 106.8342 % of the DMSO control | 99.12 % of the DMSO control | 91.64 % of the DMSO control | 129.7451 % of the DMSO control |
| COc1ccc(NC(=O)c2ccc3ccccc3c2)cc1 [Compound 99] | 104.5892 % of the DMSO control | 106.2723 % of the DMSO control | 116.3467 % of the DMSO control | 91.15 % of the DMSO control |
| COc1cccc(NC(=O)c2ccc3ccccc3c2)c1 [Compound 100] | 84.98 % of the DMSO control | 91.06 % of the DMSO control | 75.01 % of the DMSO control | 88.88 % of the DMSO control |
| O=C(Nc1ccc(Br)cc1)c1ccc2ccccc2c1 [Compound 101] | 96.05 % of the DMSO control | 93.29 % of the DMSO control | 88.21 % of the DMSO control | 106.6434 % of the DMSO control |
| O=S(=O)(Nc1ccccc1)c1ccc2ccccc2c1 [Compound 102] | 97.14 % of the DMSO control | 95.99 % of the DMSO control | 98.8 % of the DMSO control | 96.62 % of the DMSO control |
| CCC(C)NS(=O)(=O)c1cccc2ccccc12 (stereo not drawn) [Compound 120] | 88.28 % of the DMSO control | 100.2942 % of the DMSO control | 88.31 % of the DMSO control | 76.25 % of the DMSO control |
| CC(C)CNS(=O)(=O)c1cccc2ccccc12 [Compound 121] | 113.6663 % of the DMSO control | 113.2938 % of the DMSO control | 128.755 % of the DMSO control | 98.9502 % of the DMSO control |
| O=S(=O)(c1cccc2ccccc12)N1CCCCC1 [Compound 122] | 92.0952 % of the DMSO control | 100.1387 % of the DMSO control | 96.02 % of the DMSO control | 80.1244 % of the DMSO control |
| O=S(=O)(c1cccc2ccccc12)N1CCCC1 [Compound 123] | 98.83 % of the DMSO control | 85.69 % of the DMSO control | 90.18 % of the DMSO control | 120.6126 % of the DMSO control |
| O=S(=O)(NC1CCCCC1)c1cccc2ccccc12 [Compound 124] | 95.1 % of the DMSO control | 96.7646 % of the DMSO control | 90.1191 % of the DMSO control | 98.42 % of the DMSO control |
| CCN(CC)S(=O)(=O)c1cccc2ccccc12 [Compound 126] | 89.15 % of the DMSO control | 93.7 % of the DMSO control | 89.1 % of the DMSO control | 84.66 % of the DMSO control |
| CCCCN(CCCC)S(=O)(=O)c1ccc2ccccc2c1 [Compound 128] | 83.97 % of the DMSO control | 85.63 % of the DMSO control | 91.51 % of the DMSO control | 74.78 % of the DMSO control |
| CC(C)N(C(C)C)S(=O)(=O)c1ccc2ccccc2c1 [Compound 130] | 89.39 % of the DMSO control | 89.06 % of the DMSO control | 79.12 % of the DMSO control | 100.0032 % of the DMSO control |
| CC(NS(=O)(=O)c1ccc2ccccc2c1)c1ccccc1 (stereo not drawn) [Compound 131] | 85.9 % of the DMSO control | 78.38 % of the DMSO control | 91.41 % of the DMSO control | 87.92 % of the DMSO control |
| CCC(C)NS(=O)(=O)c1ccc(-c2ccccc2)cc1 (stereo not drawn) [Compound 132] | 86.84 % of the DMSO control | 81.51 % of the DMSO control | 85.61 % of the DMSO control | 93.42 % of the DMSO control |
| O=S(=O)(NCc1ccccc1)c1ccc(-c2ccccc2)cc1 [Compound 135] | 99.36 % of the DMSO control | 93.55 % of the DMSO control | 101.8388 % of the DMSO control | 102.6888 % of the DMSO control |
| c1ccc2cc(CN3CCOCC3)ccc2c1 [Compound 138] | 104.8487 % of the DMSO control | 103.8509 % of the DMSO control | 97.61 % of the DMSO control | 113.0808 % of the DMSO control |
| c1ccc2cc(CN3CCCCC3)ccc2c1 [Compound 141] | 80.31 % of the DMSO control | 80.57 % of the DMSO control | 95.09 % of the DMSO control | 65.29 % of the DMSO control |
| CC(C)CNC(c1ccccc1)(c1ccccc1)c1ccc2ccccc2c1 [Triarylmethyl Amine Compound No. 43, reference compound] | 82.46 % of the DMSO control | 86.35 % of the DMSO control | 74.72 % of the DMSO control | 86.32 % of the DMSO control |

Same assay, conditions: 10 μM, 24 hrs, ELISA of media

| Compound | apoE (apoE3) expression compared to the control DMSO, in words |
| --- | --- |
| CC(C)CNC(c1ccccc1)(c1ccccc1)c1ccc2ccccc2c1 [Triarylmethyl Amine Compound No. 43, reference compound] | effectively decrease |
